{
  "source": "patent US20240398823A1",
  "about": "“DUAL INHIBITOR OF HISTONE DEACETYLASE 6 AND HEAT SHOCK PROTEIN 90” (TAIPEI MEDICAL UNIVERSITY, priority 2021, published 2024)",
  "key": {"[1]": {"test_system": "HCT116", "assay": "MTT assay, survival of human colorectal cancer cells HCT116", "assay_type": "cell-based", "conditions": "HCT-116, 48 h, mean ± SD, read-out: Human cell lines HCT116 IC50(μM ± SD)", "experimental": "The effects on cell viability of the HSP90/HDAC6 dual inhibitors as described in Synthesis Examples (such as Compounds 63, 64, and 66 to 76) were evaluated. Cells were seeded in 96-well plates (5000 cells/well). The next day, the serially diluted drugs were added into the wells and incubated at 37° C. for 48 h. Cell viability was measured by the MTT assay and is expressed as percentages of surviving drug-treated cells relative to untreated control cells. The IC50 was calculated by non-linear regression analysis.\nThe inhibitory effect of the HSP90/HDAC6 dual inhibitors as described in Synthesis Examples on the survival rate of human colorectal cancer cells HCT116 is evaluated using MTT assay."}, "[2]": {"test_system": "T cells in blood (CD8+, CD4+, Treg)", "assay": "Peripheral blood immune cells by flow cytometry in CT26 tumor mice", "assay_type": "in vivo, mouse", "conditions": "day 25, flow cytometry, 10, 25, 50 mg/kg", "experimental": "FIGS. 10A to 10C show immune cell regulation of peripheral blood by Compound 75. BALB/c mice with CT26 tumors were treated with 10, 25 and 50 mg/kg of Compound 75 every two days, and blood was collected from the heart and analyzed by flow cytometry on day 25 for cytotoxicity T cells (CD3+CD8+) (as shown in FIG. 10A), helper T cells (CD3^+CD4^+) (as shown in FIG. 10B) and regulatory T cells (CD3^+CD4^+FOXP3^+) (as shown in FIG. 10C). Data are expressed as mean±S.D. N values greater than 3. * P<0.05; ** P<0.01; *** P<0.001, compared with the control group.\nThe reasons for the decrease of Treg in blood were further investigated."}, "[3]": {"test_system": "PD-L1 and IDO expression in HCT116 and CT26 cell lines", "assay": "Western blot of IFN-γ-induced PD-L1 and IDO, STAT1 pathway, in HCT116 and CT26", "assay_type": "cell-based, human; mouse", "conditions": "HCT116 and CT26, 48 hours, via p-STAT1 and STAT1", "experimental": "The cells were tested in 6-well plates with 32×10^4 cells/well and co-treated with Compound 75 for 48 hours and analyzed by flow cytometry. Bar, SD.\nThe effects of the HSP90/HDAC6 dual inhibitors as described in Synthesis Examples (such as Compounds 63, 64, and 66 to 76) on several factors were evaluated. Cells were lysed in RIPA buffer (Thermo Fisher Scientific, Wal-tham, MA, USA) and protease inhibitor (Roche, Basel, CH). Sample were further separated in 8% or 15% SDS-PAGE and transferred to nitrocellulose membrane and blocked with 5% skim milk (w/v in PBS). Nitrocellulose membranes were then incubated with primary antibodies against the following antigens: HSP90, Src, AKT, Rb, phosphorylated Rb (p-Rb), FAK, HSP70, α-tubulin acetylation, acetyl histone H3, phosphorylated STAT1 (p-STAT1), STAT1 (Cell signaling, Danvers, MA, USA), α-tubulin, Histone H3 (Genetex, Irvine, USA), IDO (Santa Cruz Biotechnology Dallas, TX, USA) and PD-L1 (Novus, Littleton, CO, USA) at 4° C. for overnight. The target proteins were visualized by using HRP-conjugated secondary antibodies (Jackson ImmunoResearch Laboratories, West Grove, PA, USA) and enhanced chemiluminescence kit (Thermo Fisher Scientific, Waltham, MA, U.S.A.).\nUsing western blot, whether Compound 75 reduced […]-induced PD-L1 and IDO performance by inhibiting STAT1 pathway was evaluated."}, "[4]": {"test_system": "CT26 tumor recurrence", "assay": "CT26 tumor recurrence after tumor removal and re-inoculation", "assay_type": "in vivo, mouse", "conditions": "50 mg/kg every two days, day 37", "experimental": "Stage 1: CT26 was injected subcutaneously into the left dorsum of immunocompetent mice (BALB/c), and Compound 75 treatment was started after 3 days, administered intravenously at a dose of 50 mg/kg every two days (7 doses in total). After tumor removal, tumor cells were isolated for in vitro culture (untreated tumor control-tumor; Compound 75-treated tumor: Compound 75-tumor). Stage 2: On day 17, the isolated tumor cells were injected subcutaneously into the right side of the mouse back and the mice were sacrificed on day 37 (as shown in FIG. 14A). […] Data are mean t S.E.M. N values greater than 4.\nWhether Compound 75 induces the performance of memory T cells to prevent tumor recurrence was further investigated. Mouse colorectal cancer cells (CT26) were inoculated into the back of immunocompetent mice (BALB/c) and gave control or Compound 75 (50 mg/kg) every two days after 3 days, and removed the tumors on day 14. The cancer cells were isolated and cultured in vitro. The isolated cancer cells were re-injected into the back of the mice on day 17 and the mice were sacrificed on day 37 (FIG. 14A). […] However, in the control group (control/control-tumor), 4 out of 5 cancer recurrences occurred and the tumors were larger (FIGS. 14B, 14C and 14D)."}, "[5]": {"biological_target": "T1, HDAC1 (Homo sapiens, UniProt Q13547)", "T1 construct": "Reaction Biology Corporation (ran the assay as a service)", "T1 sequence (Q13547 whole entry)": "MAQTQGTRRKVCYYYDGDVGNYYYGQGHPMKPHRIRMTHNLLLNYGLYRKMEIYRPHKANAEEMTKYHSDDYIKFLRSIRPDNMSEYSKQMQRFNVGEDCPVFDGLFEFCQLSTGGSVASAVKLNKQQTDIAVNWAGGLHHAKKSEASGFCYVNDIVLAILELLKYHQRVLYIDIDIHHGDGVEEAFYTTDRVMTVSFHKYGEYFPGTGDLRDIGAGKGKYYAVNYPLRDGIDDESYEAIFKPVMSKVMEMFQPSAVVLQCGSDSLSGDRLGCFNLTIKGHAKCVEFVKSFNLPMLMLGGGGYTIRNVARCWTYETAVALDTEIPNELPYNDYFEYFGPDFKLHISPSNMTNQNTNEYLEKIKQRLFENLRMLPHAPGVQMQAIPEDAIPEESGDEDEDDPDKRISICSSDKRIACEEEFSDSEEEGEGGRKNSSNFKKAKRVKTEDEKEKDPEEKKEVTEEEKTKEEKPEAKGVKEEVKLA", "assay": "HDAC enzymes inhibition assay (Reaction Biology), HDAC1", "assay_type": "biochemical", "conditions": "10-dose, 3-fold dilution from 10 μM, single experiment"}},
  "data": [
    {"smiles": "COc1ccc(N(Cc2ccc(C(=O)NO)cc2)C(=O)c2cc(C(C)C)c(O)cc2O)cc1", "note": "[Compound 75, 2,4-Dihydroxy-N-(4-hydroxycarbamoyl-benzyl)-5-isopropyl-N-(4-methoxy-phenyl)-benzamide]", "values": [
      {"measurement": "IC50", "setting": "[1]", "result": "0.27 ± 0.01", "unit": "µM"},
      {"measurement": "immunosuppressive Treg cell level in blood", "setting": "[2]", "result": "could be reduced in a concentration dependent manner"},
      {"measurement": "percentage of CD4+ helper T cells in blood", "setting": "[2]", "result": "did not affect"},
      {"measurement": "percentage of CD8+ cytotoxicity T cells in blood", "setting": "[2]", "result": "did not affect"},
      {"measurement": "IFN-γ-induced PD-L1 and IDO expression", "setting": "[3]", "result": "downregulated PD-L1 and IDO expression"},
      {"measurement": "cancer recurrence, re-inoculated with Compound 75-treated cancer cells", "setting": "[4]; group comp.75/comp.75-tumor", "result": "only one mouse suffered cancer recurrence"},
      {"measurement": "cancer recurrence, re-inoculated with control cancer cells", "setting": "[4]; group comp.75/control-tumor", "result": "only one mouse suffered cancer recurrence"},
      {"measurement": "IC50", "setting": "[5]", "result": 616, "unit": "nM"}
    ]}
  ]
}
